Laboratory results as given in ChEMBL document CHEMBL3862033 (J Med Chem, 2016).

Key:
[1] = biological target: T1, 5-hydroxytryptamine receptor 1A (Homo sapiens) (UniProt P08908); assay: Displacement of [3H]WAY100635 from human 5-HT1AR expressed in CHO cell membranes at 10 uM incubated for 90 mins under dark condition by microbeta scintillation counting method relative to control
T1 sequence (whole entry): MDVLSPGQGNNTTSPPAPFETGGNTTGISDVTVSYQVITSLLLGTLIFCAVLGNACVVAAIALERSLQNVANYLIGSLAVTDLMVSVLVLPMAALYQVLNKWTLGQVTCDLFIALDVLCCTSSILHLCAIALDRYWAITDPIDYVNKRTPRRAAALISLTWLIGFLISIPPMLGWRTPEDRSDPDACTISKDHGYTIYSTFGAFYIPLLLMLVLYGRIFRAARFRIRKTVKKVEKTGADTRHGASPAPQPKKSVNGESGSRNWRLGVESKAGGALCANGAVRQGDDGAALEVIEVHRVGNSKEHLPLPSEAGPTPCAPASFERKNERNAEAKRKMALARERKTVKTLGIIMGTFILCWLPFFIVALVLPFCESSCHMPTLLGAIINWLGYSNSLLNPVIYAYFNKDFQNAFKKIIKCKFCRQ

[2] = biological target: 5-hydroxytryptamine receptor 1B (Homo sapiens) (UniProt P28222); assay: Displacement of [3H]5-CT from human 5-HT1BR expressed in HEK cell membranes at 10 uM incubated for 90 mins under dark condition by microbeta scintillation counting method relative to control; conditions: HEK293
[3] = biological target: 5-hydroxytryptamine receptor 1D (Homo sapiens) (UniProt P28221); assay: Displacement of [3H]5-CT from human 5-HT1D receptor expressed in HEK-T cell membranes at 10 uM incubated for 90 mins under dark condition by microbeta scintillation counting method relative to control
[4] = biological target: 5-hydroxytryptamine receptor 1E (Homo sapiens) (UniProt P28566); assay: Displacement of [3H]5-HT from human 5-HT1E receptor expressed in HEK cell membranes at 10 uM incubated for 90 mins under dark condition by microbeta scintillation counting method relative to control; conditions: HEK293
[5] = biological target: 5-hydroxytryptamine receptor 4 (Homo sapiens) (UniProt Q13639); assay: Displacement of [3H]GR113808 from human 5-HT4 receptor at 10 uM incubated for 90 mins under dark condition by microbeta scintillation counting method relative to control
[6] = biological target: 5-hydroxytryptamine receptor 7 (Homo sapiens) (UniProt P34969); assay: Displacement of [3H]LSD from human 5-HT7A receptor expressed in HEK cell membranes at 10 uM incubated for 90 mins under dark condition by microbeta scintillation counting method relative to control; conditions: HEK293
[7] = biological target: T2, 5-hydroxytryptamine receptor 3A (Homo sapiens) (UniProt P46098); assay: Displacement of [3H]GR65630 from human 5-HT3 receptor expressed in HEK-T cell membranes at 10 uM incubated for 90 mins under dark condition by microbeta scintillation counting method relative to control
T2 sequence (whole entry): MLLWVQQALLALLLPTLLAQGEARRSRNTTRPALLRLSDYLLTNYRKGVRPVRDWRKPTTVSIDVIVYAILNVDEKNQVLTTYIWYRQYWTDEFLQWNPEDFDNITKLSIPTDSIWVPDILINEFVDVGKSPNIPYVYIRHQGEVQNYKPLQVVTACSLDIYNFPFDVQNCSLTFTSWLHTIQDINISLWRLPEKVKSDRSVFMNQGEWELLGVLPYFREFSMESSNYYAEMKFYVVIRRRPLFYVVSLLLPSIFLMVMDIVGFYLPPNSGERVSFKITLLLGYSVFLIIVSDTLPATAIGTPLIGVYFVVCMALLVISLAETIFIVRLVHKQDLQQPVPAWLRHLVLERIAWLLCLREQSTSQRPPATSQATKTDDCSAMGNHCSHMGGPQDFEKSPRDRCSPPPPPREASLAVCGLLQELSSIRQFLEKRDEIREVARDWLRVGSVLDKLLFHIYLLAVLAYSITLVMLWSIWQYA

[8] = biological target: 5-hydroxytryptamine receptor 2B (Homo sapiens, UniProt P41595); assay: biochemical; type: cell-based, HEK293
Adenosine receptor A1 = biological target: T3, Adenosine receptor A1 (Homo sapiens, UniProt P30542); assay: Displacement of [3H]N6-phenylisopropyladenosine from recombinant human A1AR expressed in CHO cell membranes after 60 mins by liquid scintillation counting method
T3 sequence (P30542 whole entry): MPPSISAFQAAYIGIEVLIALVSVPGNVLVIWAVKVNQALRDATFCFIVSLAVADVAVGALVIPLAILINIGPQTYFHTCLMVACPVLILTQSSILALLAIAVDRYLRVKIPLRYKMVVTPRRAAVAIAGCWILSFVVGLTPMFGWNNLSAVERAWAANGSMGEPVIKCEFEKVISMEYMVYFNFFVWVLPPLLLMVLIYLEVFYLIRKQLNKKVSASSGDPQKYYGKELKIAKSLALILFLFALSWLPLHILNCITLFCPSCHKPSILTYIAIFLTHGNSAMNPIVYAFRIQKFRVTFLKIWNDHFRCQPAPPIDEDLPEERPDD

Adenosine receptor A3 = biological target: T4, Adenosine receptor A3 (Homo sapiens, UniProt P0DMS8); assay: Displacement of [125l]N 6-(4-amino-3-iodobenzyl)adenosine-5'-N-methyluronamide from recombinant human A3AR expressed in CHO cell membranes after 60 mins by gamma counting method
T4 sequence (P0DMS8 whole entry): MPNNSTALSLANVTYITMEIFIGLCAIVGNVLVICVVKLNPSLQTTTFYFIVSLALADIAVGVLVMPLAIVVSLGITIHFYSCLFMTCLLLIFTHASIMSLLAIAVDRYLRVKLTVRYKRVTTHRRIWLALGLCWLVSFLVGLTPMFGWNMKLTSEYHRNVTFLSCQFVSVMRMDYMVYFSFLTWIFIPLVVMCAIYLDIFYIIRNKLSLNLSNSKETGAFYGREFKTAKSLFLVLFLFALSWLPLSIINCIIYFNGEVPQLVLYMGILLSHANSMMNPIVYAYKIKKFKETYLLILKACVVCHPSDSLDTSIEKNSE

[9] = biological target: T5, 5-hydroxytryptamine receptor 2C (Homo sapiens, UniProt P28335); assay: Antagonist activity at human 5-HT2CR expressed in Flp-In HEK cells assessed as inhibition of serotonin induced calcium mobilization preincubated for 5 to 10 mins followed 5-Ht addition by Fluo-4 dye based FLIPR assay; type: functional, cell-based, HEK293
T5 sequence (P28335 whole entry): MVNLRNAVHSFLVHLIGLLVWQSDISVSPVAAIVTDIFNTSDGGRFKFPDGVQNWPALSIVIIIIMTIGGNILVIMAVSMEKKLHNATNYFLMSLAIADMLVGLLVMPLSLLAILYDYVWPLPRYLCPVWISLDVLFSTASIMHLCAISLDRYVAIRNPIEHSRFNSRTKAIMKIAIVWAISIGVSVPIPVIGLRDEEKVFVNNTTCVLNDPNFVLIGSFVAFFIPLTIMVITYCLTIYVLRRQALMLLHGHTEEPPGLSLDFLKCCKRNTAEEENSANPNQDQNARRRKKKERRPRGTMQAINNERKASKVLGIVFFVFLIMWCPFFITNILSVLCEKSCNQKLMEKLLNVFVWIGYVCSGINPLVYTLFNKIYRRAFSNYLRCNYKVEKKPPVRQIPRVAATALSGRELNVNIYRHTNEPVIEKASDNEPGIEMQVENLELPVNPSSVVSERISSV

5-hydroxytryptamine receptor 4 (Homo sapiens), sequence (Q13639 whole entry): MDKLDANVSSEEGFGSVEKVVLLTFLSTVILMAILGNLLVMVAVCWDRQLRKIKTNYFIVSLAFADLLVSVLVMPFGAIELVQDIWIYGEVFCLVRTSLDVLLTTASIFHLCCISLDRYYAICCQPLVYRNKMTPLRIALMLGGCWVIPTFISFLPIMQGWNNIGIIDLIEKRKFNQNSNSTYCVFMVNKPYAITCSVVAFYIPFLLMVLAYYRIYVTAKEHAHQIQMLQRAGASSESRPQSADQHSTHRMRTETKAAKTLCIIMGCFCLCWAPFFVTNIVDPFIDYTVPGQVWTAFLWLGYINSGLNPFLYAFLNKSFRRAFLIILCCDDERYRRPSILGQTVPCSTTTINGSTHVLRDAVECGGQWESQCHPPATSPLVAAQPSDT
5-hydroxytryptamine receptor 7 (Homo sapiens), sequence (P34969 whole entry): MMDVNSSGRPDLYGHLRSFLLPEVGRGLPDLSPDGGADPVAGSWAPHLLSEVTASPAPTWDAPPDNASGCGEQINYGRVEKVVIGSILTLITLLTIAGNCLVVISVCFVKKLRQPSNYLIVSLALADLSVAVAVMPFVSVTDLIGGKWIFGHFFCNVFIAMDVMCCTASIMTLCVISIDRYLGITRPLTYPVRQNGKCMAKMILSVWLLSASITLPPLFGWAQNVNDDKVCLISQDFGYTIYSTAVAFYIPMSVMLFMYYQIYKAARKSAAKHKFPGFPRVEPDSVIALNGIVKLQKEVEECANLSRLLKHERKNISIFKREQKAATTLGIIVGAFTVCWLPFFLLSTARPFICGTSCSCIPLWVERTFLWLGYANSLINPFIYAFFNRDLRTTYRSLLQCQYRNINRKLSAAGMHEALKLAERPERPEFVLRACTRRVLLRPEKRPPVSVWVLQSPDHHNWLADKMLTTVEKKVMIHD
5-hydroxytryptamine receptor 1E (Homo sapiens), sequence (P28566 whole entry): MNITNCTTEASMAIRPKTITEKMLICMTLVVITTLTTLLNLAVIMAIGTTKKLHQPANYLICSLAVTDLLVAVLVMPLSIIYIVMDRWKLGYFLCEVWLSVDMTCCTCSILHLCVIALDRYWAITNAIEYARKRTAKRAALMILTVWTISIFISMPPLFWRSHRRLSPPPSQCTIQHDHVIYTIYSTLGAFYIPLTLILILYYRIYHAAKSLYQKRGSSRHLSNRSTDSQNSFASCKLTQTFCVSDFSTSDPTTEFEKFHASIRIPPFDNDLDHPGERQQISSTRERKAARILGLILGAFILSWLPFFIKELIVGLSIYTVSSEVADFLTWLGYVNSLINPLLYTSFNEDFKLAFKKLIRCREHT
5-hydroxytryptamine receptor 1D (Homo sapiens), sequence (P28221 whole entry): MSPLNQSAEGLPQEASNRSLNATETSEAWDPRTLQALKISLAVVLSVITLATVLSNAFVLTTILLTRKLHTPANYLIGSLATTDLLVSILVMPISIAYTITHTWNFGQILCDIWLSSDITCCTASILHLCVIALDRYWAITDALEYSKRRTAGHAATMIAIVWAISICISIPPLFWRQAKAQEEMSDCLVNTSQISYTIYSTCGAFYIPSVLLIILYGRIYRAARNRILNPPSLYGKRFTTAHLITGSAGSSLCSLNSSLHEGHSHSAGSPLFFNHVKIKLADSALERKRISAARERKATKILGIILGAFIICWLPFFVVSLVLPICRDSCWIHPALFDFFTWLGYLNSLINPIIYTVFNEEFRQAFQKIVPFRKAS
5-hydroxytryptamine receptor 1B (Homo sapiens), sequence (P28222 whole entry): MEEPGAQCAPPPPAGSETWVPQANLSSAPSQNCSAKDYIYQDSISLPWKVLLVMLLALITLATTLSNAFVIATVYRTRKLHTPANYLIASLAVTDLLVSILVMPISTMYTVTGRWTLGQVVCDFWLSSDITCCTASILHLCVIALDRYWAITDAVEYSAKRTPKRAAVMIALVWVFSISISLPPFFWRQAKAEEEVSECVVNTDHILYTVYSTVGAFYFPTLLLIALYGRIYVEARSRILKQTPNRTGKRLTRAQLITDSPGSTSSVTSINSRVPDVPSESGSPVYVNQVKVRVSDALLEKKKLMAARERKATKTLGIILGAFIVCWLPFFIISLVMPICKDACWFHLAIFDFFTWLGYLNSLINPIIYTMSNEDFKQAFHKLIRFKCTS
5-hydroxytryptamine receptor 2B, sequence (P41595 whole entry): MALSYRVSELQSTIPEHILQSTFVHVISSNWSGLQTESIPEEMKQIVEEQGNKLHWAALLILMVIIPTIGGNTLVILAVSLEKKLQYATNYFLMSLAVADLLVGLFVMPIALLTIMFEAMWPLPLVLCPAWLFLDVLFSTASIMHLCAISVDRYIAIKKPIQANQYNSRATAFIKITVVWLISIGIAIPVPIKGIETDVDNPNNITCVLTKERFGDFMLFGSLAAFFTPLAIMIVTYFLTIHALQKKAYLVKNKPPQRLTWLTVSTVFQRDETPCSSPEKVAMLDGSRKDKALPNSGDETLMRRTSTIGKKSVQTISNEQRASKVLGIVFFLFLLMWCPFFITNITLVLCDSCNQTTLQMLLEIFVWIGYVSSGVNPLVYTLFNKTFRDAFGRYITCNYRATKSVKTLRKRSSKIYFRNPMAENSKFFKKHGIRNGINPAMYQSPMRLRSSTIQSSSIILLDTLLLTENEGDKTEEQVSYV

Row | Compound | inhibition [1] | inhibition [2] | inhibition [3] | inhibition [4] | inhibition [5] | inhibition [6] | inhibition [7] | Ki [8] | Ki (Adenosine receptor A1) | Ki (Adenosine receptor A3) | Ki [9]
1 | COC(=O)[C@@]12C[C@@H]1[C@@H](n1cnc3c(NC(C4CC4)C4CC4)nc(Cl)nc31)[C@H](O)[C@@H]2O | < 50% | < 50% | < 50% | < 50% | < 50% | < 50% | < 50% | 0.019 µM | 0.437 µM | 0.766 µM | 0.0041 µM
2 | OC[C@@]12C[C@@H]1[C@@H](n1cnc3c(NC(C4CC4)C4CC4)nc(Cl)nc31)[C@H](O)[C@@H]2O | < 50% | < 50% | < 50% | < 50% | < 50% | < 50% | < 50% | – | 0.039 µM | 1.6 µM | 0.337 µM
3 | CNC(=O)[C@@]12C[C@@H]1[C@@H](n1cnc3c(NC(C4CC4)C4CC4)nc(Cl)nc31)[C@H](O)[C@@H]2O | < 50% | < 50% | < 50% | < 50% | < 50% | < 50% | < 50% | 0.023 µM | 0.11 µM | 0.034 µM | 0.752 µM
4 | CCOC(=O)[C@@]12C[C@@H]1[C@@H](n1cnc3c(NC(C4CC4)C4CC4)nc(Cl)nc31)[C@H](O)[C@@H]2O | < 50% | < 50% | < 50% | < 50% | < 50% | < 50% | < 50% | 0.015 µM | 0.36 µM | 0.236 µM | 0.0039 µM
